Data on 23 compounds can be found in patent publication US3991200A, “Substituted nitroimidazolyl thiadiazoles and oxadiazoles as antibacterial agents and growth promoting compounds” (American Cyanamid Company, priority 1973, dated 1976).

Several values for one entry are separate records, joined by “and”; a condition that tells them apart may be missing. Equal entries are not always repeated.

In one assay the test system is Salmonella gallinarum. As to the kind of experiment: controlling fowl typhoid in chicks, medicated feed. The class given is in vivo, Salmonella gallinarum (in sex-linked pullet chicks). To be noted: 10 days. As for the experimental part: Groups of five one-day old sex-linked pullet checks are infected orally by gavage with 0.5 ml. of a 10^-^2 dilution of a five-hour Trypticase Soy Broth culture of Salmonella gallinarum, the causative agent of fowl typhoid. Each chick receives approximately 6 × 10^5 viable cells. Medication is administered continuously in the feed, beginning 3 hours before infection and continuing for 10 days, at which time the test is terminated and the number of survivors in each group recorded. Each test utilizes two control groups of chicks, the first group comprising 20 chicks which are infected and untreated, and the second group comprising 10 chicks which are uninfected and untreated. The results of the tests are set forth in the following Table III (in some instances, the results from two or more tests are combined): […]

Assay [1] concerns Pasteurella multocida. Nature of the assay: controlling a Pasteurella multocida infection in mice. The assay is classed as in vivo, Pasteurella multocida (in Swiss Webster female mice). To be noted: 336 h, 2 mg./mouse by gavage, two weeks post-infection, read-out: Survivors/Total (converted). As for the experimental part: Swiss Webster, female mice weighing 22±2 g. were infected by intrapeutoneal injection of 0.5 ml. of a 5 hour Trypticase Soy Broth culture containing 10^7 cfu. of P. multocida. Each mouse was given by gavage at the time of infection 2 mg. of the test drug suspended in 0.2% agar.

The subject of assay [2] is Pasteurella multocida. The description is as above. The assay is classed as in vivo, Pasteurella multocida (in Swiss Webster female mice). To be noted: 336 h, two weeks post-infection, read-out: Survivors/Total (converted); for responders at 0.25 mg: 0.25 mg./mouse by gavage; for responders at 0.5 mg: 0.5 mg./mouse by gavage; for responders at 1 mg: 1 mg./mouse by gavage.

Assay [3] in a line: enhancing the growth rate and improving feed efficiency, chicks. The class given is in vivo. An excerpt: Day-old chicks are divided into groups of ten birds each, five males and five females. These groups are then weighted, placed in pens and given free access to water and feed. […] All feed is weighed such that an accurate determination as to the amount of gain per unit of feed can be ascertained. […]

[4] abbreviates: 0.025% in feed, 10 chicks tested.
The mark [5] stands for this setting: 10 ppm in diet, 10 birds, 19 days.
Setting [6] is: 0.006% in feed, 10 chicks tested.
Where [7] appears, read: 10 ppm in diet, 10 birds, 19 days, listed as 1-[5-(1-Methyl-5-nitro-2-imidazolyl)-1,3,4-thiadiazol-2-yl]-4-(2-thiazolyl)piper.
Setting [8] is: 10 ppm in diet, 10 birds, listed as 1-[5-(1-Methyl-5-nitro-2-imidazolyl)-1,3,4-thiadiazol-2-yl]-4-(2-thiazolyl)piper.
The mark [9] stands for this setting: 100 PPM in diet, average of two groups.
The mark [10] stands for this setting: 100 PPM in diet, groups of 10 and 9 birds, listed as 2-(2-amino-5-thiadiazolyl)-1-(2-hydroxyethyl)5-nitroimidazole.

`CN1CCN(c2nnc(-c3ncc([N+](=O)[O-])n3C)s2)CC1` [2-[2-(4-Methyl-1-piperazinyl)-5-thiadiazolyl)-1-methyl-5-nitroimidazole] yielded a Survivors in the assay with Salmonella gallinarum (0.1% in feed, 10 chicks tested) of 4.

Regarding `Nc1nnc(-c2ncc([N+](=O)[O-])n2Cc2ccccc2)s1` [2-(2-Amino-5-thiadiazolyl)-1-benzyl-5-nitroimidazole], the responders at 2 mg with Pasteurella multocida [1] was 0%. Besides, the Survivors was determined as 4 in the assay on Salmonella gallinarum (setting [4]) and 10 in the assay with Salmonella gallinarum (0.1% in feed, 10 chicks tested).

Consider `Cn1c([N+](=O)[O-])cnc1-c1nnc(NC(C)(C)C)s1` [2-(2-t-Butylamino-5-thiadiazolyl)-1-methyl-5-nitroimidazole], for which the Survivors in the assay on Salmonella gallinarum (0.1% in feed, 10 chicks tested) worked out at 6.

`CCCn1c([N+](=O)[O-])cnc1-c1nnc(N)s1` [2-(2-amino-5-thiadiazolyl)-1-propyl-5-nitroimidazolo] returned a Survivors in the assay on Salmonella gallinarum (0.1% in feed, 10 chicks tested) of 6.

As to `Cn1c([N+](=O)[O-])cnc1-c1nnc(N2CCN(CCO)CC2)s1` [2-[4-(2-Hydroxyethyl)-1-piperazinyl-5-thiadiazolyl]-1-methyl-5-nitroimidazole], the responders at 2 mg in the assay on Pasteurella multocida [1] is 100%. The Survivors stood at 3 in the assay with Salmonella gallinarum (setting [4]) and 7 in the assay on Salmonella gallinarum (0.1% in feed, 10 chicks tested).

Turning to `CCCCCCNc1nnc(-c2ncc([N+](=O)[O-])n2C)s1` [2-(2-n-Hexylamino-5-thiadiazolyl)-1-methyl-5-nitroimidazole], in the assay on Salmonella gallinarum (0.1% in feed, 10 chicks tested), the Survivors was found to be 6. Also, in the assay with Pasteurella multocida [2], the responders at 0.25 mg is 20%, the responders at 0.5 mg is 80% and the responders at 1 mg was 90%.

Turning to `Cn1c([N+](=O)[O-])cnc1-c1nnc(N2CCCCC2)s1` [2-(2-Piperidino-5-thiadiazolyl)-1-methyl-5-nitroimidazole], in assay [3] (10 ppm in diet, 10 birds), the “Gain 19 Days” value amounted to 292.7 Grams and the “Weight at 19 days” value was found to be 334.7 Grams. Further, in assay [3] (setting [5]), the “% Increase Over Controls, F/G” value came to 2.7%; the “% Increase Over Controls, Gain” value came out at 1.0%; the lb.feed/lb. gain came out at 1.48 lb.feed/lb. gain. The Survivors with Salmonella gallinarum (0.1% in feed, 10 chicks tested) was determined as 4. Besides, in the assay with Pasteurella multocida [2], the responders at 0.25 mg was 50%, the responders at 0.5 mg is 40% and the responders at 1 mg was 90%.

For the compound `CN(CCO)c1nnc(-c2ncc([N+](=O)[O-])n2C)s1` [2-{2-N-(2-Hydroxyethyl)methylamino]-5-thiadiazolyl}-1-methyl-5-nitroimidazolo], the responders at 2 mg in the assay on Pasteurella multocida [1] was 100%. This compound showed a Survivors with Salmonella gallinarum (0.1% in feed, 10 chicks tested) of 8. In addition, in the assay with Pasteurella multocida [2], the responders at 0.5 mg is 10% and the responders at 1 mg was 30%.

For the compound `Cn1c([N+](=O)[O-])cnc1-c1nnc(NCO)s1` [2-(2-Hydroxymethylamino-5-thiadiazolyl)-1-methyl-5-nitroimidazole], the responders at 2 mg with Pasteurella multocida [1] is 100%. Besides, the Survivors in the assay on Salmonella gallinarum (setting [6]) is 2; with Salmonella gallinarum (setting [4]) it was 2; in the assay with Salmonella gallinarum (0.1% in feed, 10 chicks tested) it was 10.

Take `CN(C)CCCC1CCN(c2nnc(-c3ncc([N+](=O)[O-])n3C)s2)CC1` [2-{2-[4-(3-Dimethylaminopropyl)-1-piperidino]-5-thiadiazolyl}-1-methyl-5-nitroimidazole]: the responders at 2 mg with Pasteurella multocida [1] is 100%. Further, the responders at 0.5 mg in the assay on Pasteurella multocida [2] was 90%.

Consider `Cn1c([N+](=O)[O-])cnc1-c1nnc(NC(=O)CN2CCOCC2)s1` [2-(2-Morpholinoacetamido-5-thiadiazolyl)-1-methyl-5-nitroimidazole], for which the responders at 2 mg in the assay with Pasteurella multocida [1] was 20%. Besides, the Survivors with Salmonella gallinarum (0.025% in feed, 5 chicks tested) amounted to 1; in the assay with Salmonella gallinarum (0.1% in feed, 10 chicks tested), 10.

For `Cn1c([N+](=O)[O-])cnc1-c1nnc(NC2CCCCC2)s1` [2-(2-Cyclohexylamino-5-thiadiazolyl)-1-5-nitroimidazole], the Survivors in the assay with Salmonella gallinarum (0.1% in feed, 10 chicks tested) is listed as 8.

Turning to `CNc1nnc(-c2ncc([N+](=O)[O-])n2C)o1` [2-(2-Methylamino-5-oxadiazolyl)-1-methyl-5-nitroimidazole], the Survivors was 8 in the assay on Salmonella gallinarum (setting [6]); 10 in the assay with Salmonella gallinarum (setting [4]); 5 in the assay on Salmonella gallinarum (0.1% in feed, 5 chicks tested).

In the case of `Nc1nnc(-c2ncc([N+](=O)[O-])n2CCO)o1` [2-(2-Amino-5-oxadiazolyl)-1-(2-hydroxyethyl)-5-nitroimidazole], the responders at 2 mg with Pasteurella multocida [1] was 100%. For the same compound, in the assay on Pasteurella multocida [2], the responders at 0.5 mg was 90%.

Take `CCNc1nnc(-c2ncc([N+](=O)[O-])n2C)s1` [2-(2-Ethylamino-5-thiadiazolyl)-1-methyl-5-nitroimidazole]: the responders at 2 mg with Pasteurella multocida [1] was 100%. The Survivors in the assay with Salmonella gallinarum (0.006% in feed, 5 chicks tested) amounted to 3; in the assay on Salmonella gallinarum (setting [4]), 3; with Salmonella gallinarum (0.1% in feed, 10 chicks tested), 10.

Regarding `CC(=O)Nc1nnc(-c2ncc([N+](=O)[O-])n2CCO)s1` [N-{5-[1-(2-Hydroxyethyl)-5-nitro-2-imidazolyl]-1,3,4-thiadiazol-2-yl-acetamide], in assay [3] (10 ppm in diet, 10 birds), the “Gain 19 Days” value turned out to be 305.5 Grams and the “Weight at 19 days” value was 345.9 Grams. In assay [3] (setting [5]), the “% Increase Over Controls, F/G” value worked out at 0.6%; the “% Increase Over Controls, Gain” value was 0.7%; the lb.feed/lb. gain came to 1.57 lb.feed/lb. gain.

Regarding `Cn1c([N+](=O)[O-])cnc1-c1nnc(N2CCN(c3nccs3)CC2)s1` [2-{2-[4-(2-Thiazolyl)-1-piperazinyl]-5-thiadiazolyl]-1-methyl-5-nitroimidazole], in assay [3] (setting [7]), the “% Increase Over Controls, F/G” value is 4.1% and 2.0%; the “% Increase Over Controls, Gain” value was 5.0% and 9.0%; the lb.feed/lb. gain is 1.47 lb.feed/lb. gain and 1.50 lb.feed/lb. gain. Further, in assay [3] (setting [8]), the “Gain 19 Days” value was 315.5 Grams and 303.2 Grams; the “Weight at 19 days” value was 337.8 Grams and 346.9 Grams. Also, the responders at 2 mg in the assay on Pasteurella multocida [1] was 20%.

Turning to `Cn1c([N+](=O)[O-])cnc1-c1nnc(NC(=O)C(Cl)Cl)s1` [2-(2-Dichloroacetamido-5-thiadiazolyl)-1-methyl-5-nitroimidazole], the Survivors with Salmonella gallinarum (0.025% in feed, 15 chicks tested) turned out to be 3; with Salmonella gallinarum (0.1% in feed, 10 chicks tested), 7.

Take `CC(=O)Nc1nnc(-c2ncc([N+](=O)[O-])n2C)o1` [2-(2-Acetamido-5-oxadiazolyl)-1-methyl-5-nitroimidazole]: the Survivors was found to be 8 in the assay with Salmonella gallinarum (setting [4]) and 10 with Salmonella gallinarum (0.1% in feed, 10 chicks tested).

Regarding `Nc1nnc(-c2ncc([N+](=O)[O-])n2CCO)s1` [2-(2-Amino-5-thiodiazolyl)-1-(2-hydroxyethyl)-5-nitroimidazole], in assay [3] (100 PPM in diet, 19 days), the “% inc. over Controls, F/G” value was found to be 6.5% and the “% inc. over Controls, Gain” value turned out to be 7.6%. Further, in assay [3] (setting [9]), the “Average Gain 19 Days” value stood at 297 Grams and the “Average Wt. at 19 days” value is listed as 340 Grams. The “Average lb. feed/lb. gain” value in assay [3] (100 PPM in diet, average of two groups, 19 days) came out at 1.525 lb. feed/lb. gain. Besides, the lb.feed/lb. gain in assay [3] (100 PPM in diet, groups of 10 and 9 birds, 19 days, listed as 2-(2-amino-5-thiadiazolyl)-1-(2-hydroxyethyl)5-nitroimidazole) was 1.53 lb. feed/lb. gain and 1.52 lb. feed/lb. gain. Also, in assay [3] (setting [10]), the “Gain 19 Days” value is 309 Grams and 285 Grams; the “Wt. at 19 days” value was 352.2 Grams and 327.8 Grams. This compound came in with a Survivors in the assay on Salmonella gallinarum (setting [4]) of 8. The Survivors in the assay with Salmonella gallinarum (0.1% in feed, 10 chicks tested) amounted to 10. Besides, in the assay with Pasteurella multocida [2], the responders at 0.25 mg was 76.7%, the responders at 0.5 mg is 90% and the responders at 1 mg was 100%.

With `Nc1nnc(-c2ncc([N+](=O)[O-])n2Cc2ccccc2)o1` [2-(2-Amino-5-oxadiazolyl)-1-benzyl-5-nitroimidazole], the Survivors in the assay on Salmonella gallinarum (setting [6]) came to 1; in the assay on Salmonella gallinarum (setting [4]), 1; in the assay on Salmonella gallinarum (0.1% in feed, 10 chicks tested) it was 9.

Take `CNc1nnc(-c2ncc([N+](=O)[O-])n2CCO)o1` [2-(2-methylamino-5-oxadiazolyl)-1-(2-hydroxyethyl)-5-nitroimidazole]: the Survivors in the assay on Salmonella gallinarum (0.1% in feed, 10 chicks tested) amounted to 6.

For the compound `CN(C)c1nnc(-c2ncc([N+](=O)[O-])n2CCO)o1` [2-(2-dimethylamino-5-oxadiazolyl)-1-(2-hydroxyethyl)-5-nitroimidazole], the Survivors with Salmonella gallinarum (setting [4]) was found to be 2; with Salmonella gallinarum (0.1% in feed, 10 chicks tested), 5.
